# In ChEMBL document CHEMBL4138123, “Design, synthesis and biological evaluation of novel pyrazolochalcones as potential modulators of PI3K/Akt/mTOR pathway and inducers of apoptosis in breast cancer cells” (Eur J Med Chem, 2017):
# Key:
# UACC-62 [1] = assay: Cytotoxicity against human UACC62 cells assessed as cell growth at 0.01 uM after 48 hrs by sulforhodamine B assay relative to control; assay type: functional; settings: UACC-62, 48 h, read-out: Activity
# RPMI-8226 [2] = assay: Cytotoxicity against human RPMI8226 cells assessed as cell growth at 0.1 uM after 48 hrs by sulforhodamine B assay relative to control; assay type: functional; settings: RPMI-8226, 48 h, read-out: Activity
# MDA-MB-435 [3] = assay: Cytotoxicity against human MDA-MB-435 cells assessed as cell growth at 0.01 uM after 48 hrs by sulforhodamine B assay relative to control; assay type: functional; settings: MDA-MB-435, 48 h, read-out: Activity
# OVCAR-5 = assay: Cytotoxicity against human OVCAR5 cells assessed as cell growth at 1 uM after 48 hrs by sulforhodamine B assay relative to control; assay type: functional; settings: OVCAR-5, 48 h, read-out: Activity
# HCT-116 = assay: Cytotoxicity against human HCT116 cells assessed as cell growth at 0.01 uM after 48 hrs by sulforhodamine B assay relative to control; assay type: functional; settings: HCT-116, 48 h, read-out: Activity
# SF-268 = assay: Cytotoxicity against human SF268 cells assessed as cell growth at 1 uM after 48 hrs by sulforhodamine B assay relative to control; assay type: functional; settings: SF-268, 48 h, read-out: Activity
# NCI-H322M [4] = assay: Cytotoxicity against human NCI-H322M cells assessed as cell growth at 100 uM after 48 hrs by sulforhodamine B assay relative to control; assay type: functional; settings: read-out: Activity
# SK-MEL-28 = assay: Cytotoxicity against human SK-MEL-28 cells assessed as cell growth at 100 uM after 48 hrs by sulforhodamine B assay relative to control; assay type: functional; settings: SK-MEL-28, 48 h, read-out: Activity
# 786-0 = assay: Cytotoxicity against human 786-0 cells assessed as cell growth at 10 uM after 48 hrs by sulforhodamine B assay relative to control; assay type: functional; settings: 786-0, 48 h, read-out: Activity
# DU-145 [5] = assay: Cytotoxicity against human DU145 cells assessed as cell growth at 10 uM after 48 hrs by sulforhodamine B assay relative to control; assay type: functional; settings: DU-145, 48 h, read-out: Activity
# HCT-15 = assay: Cytotoxicity against human HCT15 cells assessed as cell growth at 0.1 uM after 48 hrs by sulforhodamine B assay relative to control; assay type: functional; settings: HCT-15, 48 h, read-out: Activity
# RPMI-8226 [6] = assay: Cytotoxicity against human RPMI8226 cells assessed as cell growth at 1 uM after 48 hrs by sulforhodamine B assay relative to control; assay type: functional; settings: RPMI-8226, 48 h, read-out: Activity
# SK-OV-3 = assay: Cytotoxicity against human SKOV3 cells assessed as cell growth at 10 uM after 48 hrs by sulforhodamine B assay relative to control; assay type: functional; settings: SK-OV-3, 48 h, read-out: Activity
# UACC-62 [7] = assay: Cytotoxicity against human UACC62 cells assessed as cell growth at 100 uM after 48 hrs by sulforhodamine B assay relative to control; assay type: functional; settings: UACC-62, 48 h, read-out: Activity
# OVCAR-8 = assay: Cytotoxicity against human OVCAR8 cells assessed as cell growth at 100 uM after 48 hrs by sulforhodamine B assay relative to control; assay type: functional; settings: OVCAR-8, 48 h, read-out: Activity
# DU-145 [8] = assay: Cytotoxicity against human DU145 cells assessed as cell growth at 100 uM after 48 hrs by sulforhodamine B assay relative to control; assay type: functional; settings: DU-145, 48 h, read-out: Activity
# SW-620 [9] = assay: Cytotoxicity against human SW620 cells assessed as growth inhibition after 48 hrs by sulforhodamine B assay; assay type: functional; settings: SW-620, 48 h
# SW-620 [10] = assay: Cytotoxicity against human SW620 cells assessed as cell growth at 100 uM after 48 hrs by sulforhodamine B assay relative to control; assay type: functional; settings: SW-620, 48 h, read-out: Activity
# U-251 = assay: Cytotoxicity against human U251 cells assessed as cell growth at 100 uM after 48 hrs by sulforhodamine B assay relative to control; assay type: functional; settings: U-251, 48 h, read-out: Activity
# PC-3 = assay: Cytotoxicity against human PC3 cells assessed as cell growth at 0.1 uM after 48 hrs by sulforhodamine B assay relative to control; assay type: functional; settings: PC-3, 48 h, read-out: Activity
# RPMI-8226 [11] = assay: Cytotoxicity against human RPMI8226 cells assessed as growth inhibition after 48 hrs by sulforhodamine B assay; assay type: functional; settings: RPMI-8226, 48 h
# K562 [12] = assay: Cytotoxicity against human K562 cells assessed as cell growth at 0.1 uM after 48 hrs by sulforhodamine B assay relative to control; assay type: functional; settings: K562, 48 h, read-out: Activity
# HL-60(TB) = assay: Cytotoxicity against human HL-60(TB) cells assessed as cell growth at 0.1 uM after 48 hrs by sulforhodamine B assay relative to control; assay type: functional; settings: HL-60, 48 h, read-out: Activity
# KM12 [13] = assay: Cytotoxicity against human KM12 cells assessed as cell growth at 10 uM after 48 hrs by sulforhodamine B assay relative to control; assay type: functional; settings: KM12, 48 h, read-out: Activity
# SN12C = assay: Cytotoxicity against human SN12C cells assessed as cell growth at 1 uM after 48 hrs by sulforhodamine B assay relative to control; assay type: functional; settings: read-out: Activity
# MCF7 = assay: Cytotoxicity against human MCF7 cells assessed as growth inhibition after 48 hrs by MTT assay; assay type: functional, cell-based; settings: MCF7, 48 h
# NCI-H322M [14] = assay: Cytotoxicity against human NCI-H322M cells assessed as cell growth at 0.1 uM after 48 hrs by sulforhodamine B assay relative to control; assay type: functional; settings: read-out: Activity
# OVCAR-4 = assay: Cytotoxicity against human OVCAR4 cells assessed as cell growth at 0.01 uM after 48 hrs by sulforhodamine B assay relative to control; assay type: functional; settings: OVCAR-4, 48 h, read-out: Activity
# ACHN = assay: Cytotoxicity against human ACHN cells assessed as growth inhibition after 48 hrs by sulforhodamine B assay; assay type: functional
# BT-549 = assay: Cytotoxicity against human BT549 cells assessed as cell growth at 10 uM after 48 hrs by sulforhodamine B assay relative to control; assay type: functional; settings: BT-549, 48 h, read-out: Activity
# KM12 [15] = assay: Cytotoxicity against human KM12 cells assessed as cell growth at 0.1 uM after 48 hrs by sulforhodamine B assay relative to control; assay type: functional; settings: KM12, 48 h, read-out: Activity
# K562 [16] = assay: Cytotoxicity against human K562 cells assessed as growth inhibition after 48 hrs by sulforhodamine B assay; assay type: functional; settings: K562, 48 h
# SF-539 = assay: Cytotoxicity against human SF539 cells assessed as cell growth at 1 uM after 48 hrs by sulforhodamine B assay relative to control; assay type: functional; settings: SF-539, 48 h, read-out: Activity
# NCI-H23 = assay: Cytotoxicity against human NCI-H23 cells assessed as cell growth at 0.01 uM after 48 hrs by sulforhodamine B assay relative to control; assay type: functional; settings: NCI-H23, 48 h, read-out: Activity
# MDA-MB-435 [17] = assay: Cytotoxicity against human MDA-MB-435 cells assessed as cell growth at 1 uM after 48 hrs by sulforhodamine B assay relative to control; assay type: functional; settings: MDA-MB-435, 48 h, read-out: Activity
# SW-620 [18] = assay: Cytotoxicity against human SW620 cells assessed as cell growth at 1 uM after 48 hrs by sulforhodamine B assay relative to control; assay type: functional; settings: SW-620, 48 h, read-out: Activity
smiles,measurement,setting,value
COc1ccc(-c2cc(/C=C/C(=O)c3ccc(N)cc3)[nH]n2)cc1,growth at 0.01 µM,UACC-62 [1],96%
same,growth at 0.1 µM,RPMI-8226 [2],100%
same,growth at 0.01 µM,MDA-MB-435 [3],97%
same,growth at 1 µM,OVCAR-5,92%
same,growth at 0.01 µM,HCT-116,97%
same,growth at 1 µM,SF-268,78%
same,growth at 100 µM,NCI-H322M [4],-98%
same,growth at 100 µM,SK-MEL-28,-81%
same,growth at 10 µM,786-0,-29%
same,growth at 10 µM,DU-145 [5],-55%
same,growth at 0.1 µM,HCT-15,100%
same,growth at 1 µM,RPMI-8226 [6],36%
same,growth at 10 µM,SK-OV-3,23%
same,growth at 100 µM,UACC-62 [7],-93%
same,growth at 100 µM,OVCAR-8,-41%
same,growth at 100 µM,DU-145 [8],-100%
same,GI50,SW-620 [9],1.69 µM
same,"LC50 (lethal concentration, 50% net cell kill)",SW-620 [9],56.2 µM
same,TGI,SW-620 [9],5.41 µM
same,growth at 100 µM,SW-620 [10],-58%
same,growth at 100 µM,U-251,-100%
same,growth at 0.1 µM,PC-3,93%
same,GI50,RPMI-8226 [11],0.6 µM
same,LC50,RPMI-8226 [11],29.4 µM
same,TGI,RPMI-8226 [11],3.22 µM
same,growth at 0.1 µM,K562 [12],95%
same,growth at 0.1 µM,HL-60(TB),97%
same,growth at 10 µM,KM12 [13],-67%
same,growth at 1 µM,SN12C,76%
same,IC50,MCF7,0.8 µM
same,growth at 0.1 µM,NCI-H322M [14],89%
same,growth at 0.01 µM,OVCAR-4,88%
same,GI50,ACHN,2.01 µM
same,LC50,ACHN,49.2 µM
same,TGI,ACHN,10.6 µM
same,growth at 10 µM,BT-549,-37%
same,growth at 0.1 µM,KM12 [15],97%
same,GI50,K562 [16],1.42 µM
same,LC50 (concentration killing 50% of cells),K562 [16],69.7 µM
same,TGI,K562 [16],11.6 µM
same,growth at 1 µM,SF-539,72%
same,growth at 0.01 µM,NCI-H23,92%
same,growth at 1 µM,MDA-MB-435 [17],85%
same,growth at 1 µM,SW-620 [18],72%
COc1ccc(C(=O)/C=C/c2cc(-c3cc(OC)c(OC)c(OC)c3)n[nH]2)cc1,growth at 0.01 µM,UACC-62 [1],100%
same,growth at 0.1 µM,RPMI-8226 [2],90%
same,growth at 0.01 µM,MDA-MB-435 [3],99%
same,growth at 1 µM,OVCAR-5,95%
same,growth at 0.01 µM,HCT-116,100%
same,growth at 1 µM,SF-268,87%
same,growth at 100 µM,NCI-H322M [4],-31%
same,growth at 100 µM,SK-MEL-28,-87%
same,growth at 10 µM,786-0,-59%
same,growth at 10 µM,DU-145 [5],-93%
same,growth at 0.1 µM,HCT-15,100%
same,growth at 1 µM,RPMI-8226 [6],27%
same,growth at 10 µM,SK-OV-3,18%
same,growth at 100 µM,UACC-62 [7],-48%
same,growth at 100 µM,OVCAR-8,-16%
same,growth at 100 µM,DU-145 [8],-2%
same,TGI,SW-620 [9],3.47 µM
same,growth at 100 µM,SW-620 [10],-39%
same,growth at 100 µM,U-251,-25%
same,growth at 0.1 µM,PC-3,95%
same,LC50,RPMI-8226 [11],> 100 µM
same,TGI,RPMI-8226 [11],2.49 µM
same,growth at 0.1 µM,K562 [12],102%
same,growth at 0.1 µM,HL-60(TB),108%
same,growth at 10 µM,KM12 [13],-88%
same,growth at 1 µM,SN12C,91%
same,IC50,MCF7,0.81 µM
same,growth at 0.1 µM,NCI-H322M [14],96%
same,growth at 0.01 µM,OVCAR-4,91%
same,LC50,ACHN,6.71 µM
same,TGI,ACHN,3.63 µM
same,growth at 10 µM,BT-549,-65%
same,growth at 0.1 µM,KM12 [15],94%
same,LC50 (concentration killing 50% of cells),K562 [16],> 100 µM
same,growth at 1 µM,SF-539,87%
same,growth at 0.01 µM,NCI-H23,93%
same,growth at 1 µM,MDA-MB-435 [17],92%
same,growth at 1 µM,SW-620 [18],82%
